# Earlier results, collected in patent US20060253014A1 (priority 2003, published 2006).
# Read-outs that look alike come from different tables or passages of the source.
# Test system: inbred mouse strains
Structure (SMILES),"Sensitive Strains (low AD50) (murine strains, AD50 = the half-maximal antinociceptive dose)","Sensitive Strains (low AD50) (mouse, in vivo)","Resistant Stains (high AD50) (mouse, in vivo)"
"Clc1cccc(Cl)c1N=C1NCCN1 [Clonidine, clonidine]","129P3, A, AKR,",,
CN1CC[C@]23c4c5ccc(O)c4O[C@H]2[C@@H](O)C=C[C@H]3[C@H]1C5 [morphine],,"129P3, C3H/He, DBA/2",
"Clc1ccc(C2CC3CCC2N3)cn1 (stereo not drawn) [Epibetadine, epibatidine]",,"A, BALB/c","AKR, CBA, C57BL/10"
"Cc1c(C(=O)c2cccc3ccccc23)c2cccc3c2n1[C@H](CN1CCOCC1)CO3 [WIN 55, 212-2]",,"129P3, A, DBA/2","AKR, C57BL/10, C58"
